In patent publication EP0897904B1, “Fungicidal 2-methoxybenzophenones” (BASF AKTIENGESELLSCHAFT, priority 1997, dated 1999):
Like-named read-outs stand apart in the source and are kept apart here.

Experiments:
[1] = tested on: Erysiphe cichoracearum DC; experiment: Curative and residual control test, Cucumber Powdery Mildew (QPM); format: in vivo; details: Golovinomyces cichoracearum, 72 h, read-out: Disease control (% efficacy); for Emax at 12.5 ppm: QPM 3 da R (3 day residual), 12,5 ppm; for Emax at 125 ppm / Emax at 1250 ppm: QPM 3 da R (3 day residual)
Description: • (a) Wheat Powdery Mildew (WPM): HOST: Wheat (Triticum aestivum L.) variety Kanzler PATHOGEN: Blumeria (Erysiphe) graminis DC. f.sp. tritici E. Marchal • (b) Cucumber Powdery Mildew (QPM): HOST: Cucumber (Cucumis sativus L.) variety Bush pickle PATHOGEN: Erysiphe cichoracearum DC
This test procedure is for curative and residual control of powdery mildew diseases. • 1. Wheat seed (approximately 8-10/pot) or cucumber seed (1 seed / pot) is planted in 6 cm diameter plastic pots and maintained in the greenhouse. • 2. When the primary leaf (wheat) or the cotyledons (cucumber) is/are fully expanded, formulated test compounds are sprayed with a single nozzle overhead track sprayer at a rate of 200 l/ha. Plants are then allowed to air-dry. • 3. Inoculation precedes treatment by 2 or 3 days in the case of curative evaluations and follows treatment by 3 or 4 days in case of residual evaluations. For inoculation, plants are set up on greenhouse benches with bottom watering mats and inoculated by dusting them with conidia from powdery mildew infected plants (stock cultures at an age of 10-14 days). Between inoculation and treatment for curative evaluations and between treatment and inoculation for residual evaluations, plants are maintained in the greenhouse with bottom watering. • 4. Disease on the primary leaf (wheat) or on the cotyledons (cucumber) as percent leaf area with disease symptoms/signs is evaluated about 7 days after inoculation. In the case of wheat, the tips and bases of the leaves are excluded from the evaluation. Percent disease control is then calculated by the following formula: % disease control = 100 -(% infection in treated plants)/(% infection in untreated plants)x 100 [formula]
(§1) • 1. Technical compounds are formulated in a solvent/surfactant system consisting of 5% acetone and 0.05% Tween 20 in deionized water. Compounds are dissolved in acetone prior to addition of the water; the Tween 20 can be added through either the acetone or the water. Dilutions are made using the solvent/surfactant system. Formulated compounds are prepared using deionized water. • 2. Two kinds of controls are included: • Plants treated with the solvent/surfactant solution and inoculated (Solvent Blank). • Untreated plants which are inoculated (Inoculated Control).

[2] = tested on: Blumeria (Erysiphe) graminis DC. f.sp. tritici E. Marchal; experiment: Zero day protectant test, Wheat Powdery Mildew (WPM); format: in vivo; details: wheat variety Kanzler, 0 day protectant test, side-by-side, technical material in 0.5% acetone 0.05% Tween 20 water
Description: • (a) Wheat Powdery Mildew (WPM): HOST: Wheat (Triticum aestivum L.) variety Kanzler PATHOGEN: Blumeria (Erysiphe) graminis DC. f.sp. tritici E. Marchal • (b) Barley Powdery Mildew (BPM): HOST: Barley (Hordeum vulgare L.) variety Golden Promise PATHOGEN: Blumeria (Erysiphe) graminis DC. f.sp. hordei E. Marchal
This test is a zero day protectant test for control of wheat and barley powdery mildews. • 1. Wheat or barley seed (approximately 8-10/pot) is planted in 6 cm diameter plastic pots and maintained in the greenhouse. • 2. When the primary leaf is fully expanded, formulated test compounds are sprayed with a single nozzle overhead track sprayer at a rate of 200 l/ha. Plants are then allowed to air-dry. • 3. Inoculation follows about three hours after compound application. Plants are set up on greenhouse benches with bottom watering mats and inoculated by dusting them with conidia from powdery mildew infected plants (stock cultures at an age of 10-14 days). • 4. Disease on the primary leaf as percent leaf area with disease symptoms/signs is evaluated about 7 days after inoculation. The tips and bases of the leaves are excluded from the evaluation. Percent disease control is then calculated by the following formula: % disease control = 100 -(% infection in treated plants)/(% infection in untreated plants)x 100 [formula]
as §1, with “system. Test compounds are typically tested over a range of concentrations covering several orders of magnitude and then ED values are calculated for comparison of compounds.” for “system.”
Compounds applied as technical material formulated in 0.5% acetone 0.05% Tween 20 water

COc1cc(C)c(C(=O)c2c(C)cccc2OC)c(OC)c1OC [Example 1, 6,6'-dimethyl-2,2',3',4'-tetramethoxy-benzophenone]
Emax at 12.5 ppm ([1]; Test A): 2% | Emax at 12.5 ppm ([1]; Test B): 3% | Emax at 125 ppm ([1]; Test A): 5% | Emax at 125 ppm ([1]; Test B): 61% | Emax at 1250 ppm ([1]; Test A): 100% | Emax at 1250 ppm ([1]; Test B): 100% | ED90 (ppm) [2]: 4 ppm
